44 compounds from patent publication US8466199B2, “Allyloxy and alkyloxy benzoic acid delivery agents” (Emisphere Technologies, Inc., priority 2007, dated 2013) can be followed below.

Experiment [1] concerns fasted male Sprague-Dawley rats. In words: Oral delivery of insulin to male Sprague-Dawley rats (blood glucose by glucometer, compared to vehicle control). The following applies: oral gavage, 200 mg/kg delivery agent + 0.5 mg/kg insulin, C minimum over 0-60 min, average of experiments. In kind it is in vivo, rat. Here is the method:
Insulin stock solution (15 mg/ml) (Human zinc insulin, Calbiochem-Novabiochem Corp., La Jolla, Calif.) was prepared with deionized water. Oral dosing compositions containing 200 mg/kg of a delivery agent compound of the present invention and 0.5 mg/kg of insulin in an aqueous solution were prepared for the compounds prepared in Examples 2-24.
(§1) One ml of the dosing solution was administered to fasted male Sprague-Dawley rats by oral gavage with an average weight of about 225-250 grams Blood glucose levels were then determined by glucometer (One Touch Ultra®, LifeScan, Inc.) and compared to vehicle control (1 ml/kg of water). Samples were collected prior to dosing (time 0) and at 15, 30, 45 and 60 minutes after dosing. The % glucose reduction is shown below in Table 1. The values correspond to the C minimum, and are an average % reduction with respect to the number of times the experiment was run for each delivery agent.
The solutions were administered to fasted male Sprague-Dawley rats and the % glucose reduction was determined in the same manner as described above.
as §1, with “Insulin stock solution (15 mg/ml) (Human zinc insulin, Calbiochem-Novabiochem Corp., La Jolla, Calif.) was prepared with deionized water. Oral dosing compositions containing 200 mg/kg of a delivery agent compound of the present invention and 0.5 mg/kg of insulin in an aqueous solution were prepared for the compounds prepared in Examples 27-34. One ml” for “One ml”, “about 225-250 grams. Blood glucose” for “about 225-250 grams Blood glucose”, “in Table 3. The values” for “in Table 1. The values”
as §1, with “Insulin stock solution (15 mg/ml) (Human zinc insulin, Calbiochem-Novabiochem Corp., La Jolla, Calif.) was prepared with deionized water. Oral dosing compositions containing 200 mg/kg of a delivery agent compound of the present invention and 0.5 mg/kg of insulin in an aqueous solution were prepared for the compounds prepared in Examples 37-49. One ml” for “One ml”, “about 225-250 grams. Blood glucose” for “about 225-250 grams Blood glucose”, “in Table 5. The values” for “in Table 1. The values”

For experiment [2] the test system is unchanged. Described as above. It is filed as in vivo, rat.
The mark [3] stands for this setting: Table 2, Insulin Dose 0 mg/kg, Carrier Dose 200 mg/kg.
The mark [4] stands for this setting: Table 2, Insulin Dose 0.25 mg/kg, Carrier Dose 200 mg/kg.

For `C=CCOc1c(OC)cccc1C(=O)O` [Compound 12, 2-Allyloxy-3-methoxy-benzoic acid], in experiment [1] (Table 1, aqueous solution), the “Glucose (Absolute change from Control)” value is −13.5%.
Still for that read-out and setting: next, `C=CCOc1cc(C(=O)O)ccc1OC` [Compound 22, 3-Allyloxy-4-methoxy-benzoic acid]: −10.2%.
Consider `C=CCCOCc1cccc(C(=O)O)c1` [Compound 36, 3-But-3-enyloxymethyl-benzoic acid], for which the “Glucose (Absolute change from Control)” value in experiment [1] (Table 5) is given as −20.7%.
The same measure, in the same setting: next, `C=CC(C)OCc1ccc(C(=O)O)cc1` (centres unmarked) [Compound 34, 4-(1-Methyl-allyloxymethyl)-benzoic acid]: −16.6%; `CC(C)OCc1cccc(C(=O)O)c1` [Compound 43, 3-Isopropoxymethyl-benzoic acid]: −29.3%.
With `C=CCOc1ccc(C(C)=O)cc1C(=O)O` [Compound 17, 5-Acetyl-2-allyloxy-benzoic acid], in experiment [1] (Table 1, aqueous solution), the “Glucose (Absolute change from Control)” value is 0.6%.
Consider `CCCOc1ccccc1C(=O)O` [Compound 26, 2-Propoxy-benzoic acid], for which, in experiment [1] (Table 3), the “Glucose (Absolute change from Control)” value is reported as −14.2%.
Turning to `C=C(C)COCc1ccc(C(=O)O)cc1` [Compound 35, 4-(2-Methyl-allyloxymethyl)-benzoic acid], the “Glucose (Absolute change from Control)” value in experiment [1] (Table 5) is on record as −16.0%.
On to `C=CCCOc1cccc(C(=O)O)c1` [Compound 5, 3-But-3-enyloxy-benzoic acid], for which the “Glucose (Absolute change from Control)” value in experiment [1] (Table 1, aqueous solution) is listed as −40.8%; in experiment [2] (setting [3]), −6.3%; in experiment [2] (setting [4]) it was −5.4%.
With `CCCCOc1cccc(C(=O)O)c1` [Compound 27, 3-Butoxy-benzoic acid], the “Glucose (Absolute change from Control)” value in experiment [1] (Table 3) is reported as −23.9%.
Turning to `CCOCc1ccc(C(=O)O)cc1` [Compound 39, 4-Ethoxymethyl-benzoic acid], in experiment [1] (Table 5), the “Glucose (Absolute change from Control)” value is reported as −1.9%.
For `C=CCOc1cc(OC)ccc1C(=O)O` [Compound 11, 2-Allyloxy-4-methoxy-benzoic acid], the “Glucose (Absolute change from Control)” value in experiment [1] (Table 1, aqueous solution) is given as −24.0%.
On to `C=CCCOCc1ccc(C(=O)O)cc1` [Compound 33, 4-But-3-enyloxymethyl-benzoic acid], for which the “Glucose (Absolute change from Control)” value in experiment [1] (Table 5) was −38.5%.
In the case of `CCOCc1cccc(C(=O)O)c1` [Compound 42, 3-Ethoxymethyl-benzoic acid], the “Glucose (Absolute change from Control)” value in experiment [1] (Table 5) is −11.3%.
Still for that read-out and setting: next, `CCCOCc1ccc(C(=O)O)cc1` [Compound 41, 4-Propoxymethyl-benzoic acid]: −19.2%; `C=CCOCc1cccc(C(=O)O)c1` [Compound 38, 3-Allyloxymethyl-benzoic acid]: −13.1%.
With `C=CCOc1ccc(Cl)cc1C(=O)O` [Compound 19, 2-Allyloxy-5-chloro-benzoic acid], the “Glucose (Absolute change from Control)” value in experiment [1] (Table 1, aqueous solution) was −21.5%.
The same measure, in the same setting: then `CC(C)=CCOc1cccc(C(=O)O)c1` [Compound 8, 3-(3-Methyl-but-2-enyloxy)-benzoic acid], with −31.6%.
Turning to `C=CCOCc1ccc(C(=O)O)cc1` [Compound 32, 4-Allyloxymethyl-benzoic acid], the “Glucose (Absolute change from Control)” value in experiment [1] (Table 5) is −19.5%.
For the compound `C=CCOc1cccc(C(=O)O)c1` [Compound 6, 3-Allyloxy-benzoic acid], the “Glucose (Absolute change from Control)” value is reported as −42.8% in experiment [1] (Table 1, aqueous solution); −10.7% in experiment [2] (setting [3]); −18.2% in experiment [2] (setting [4]).
`CC(C)OCc1ccc(C(=O)O)cc1` [Compound 40, 4-Isopropoxymethyl-benzoic acid]: the “Glucose (Absolute change from Control)” value in experiment [1] (Table 5) is recorded as −31.9%.
With `CC(C)=CCOc1ccccc1C(=O)O` [Compound 7, 2-(3-Methyl-but-2-enyloxy)-benzoic acid], in experiment [1] (Table 1, aqueous solution), the “Glucose (Absolute change from Control)” value is reported as −38.8%.
With `CCCCOc1ccc(C(=O)O)cc1` [Compound 28, 4-Butoxy-benzoic acid], in experiment [1] (Table 3), the “Glucose (Absolute change from Control)” value is reported as −22.3%.
Regarding `C=C(C)COCc1cccc(C(=O)O)c1` [Compound 37, 3-(2-Methyl-allyloxymethyl)-benzoic acid], the “Glucose (Absolute change from Control)” value in experiment [1] (Table 5) was −8.4%.
Consider `C=CCOc1ccccc1C(=O)O` [Compound 1, 2-Allyloxy-benzoic acid], for which the “Glucose (Absolute change from Control)” value in experiment [1] (Table 1, aqueous solution) is −35.1%; in experiment [2] (setting [3]) it was −12.5%; in experiment [2] (Table 2, Insulin Dose 0.25 mg/kg, Carrier Dose 100 mg/kg) it was −17.9%; in experiment [2] (setting [4]) it was 3.0%.
Turning to `C=CCOc1cccc(C)c1C(=O)O` [Compound 14, 2-Allyloxy-6-methyl-benzoic acid], the “Glucose (Absolute change from Control)” value in experiment [1] (Table 1, aqueous solution) was −14.4%.
`C=C(C)COc1cc(C(=O)O)ccc1OC` [Compound 23, 4-Methoxy-3-(2-methyl-allyloxy)-benzoic acid]: the “Glucose (Absolute change from Control)” value in experiment [1] (Table 1, aqueous solution) is on record as −8.4%.
As to `C=CCOc1ccc(C)cc1C(=O)O` [Compound 13, 2-Allyloxy-5-methyl-benzoic acid], the “Glucose (Absolute change from Control)” value in experiment [1] (Table 1, aqueous solution) is −30.7%.
Same read-out and setting: then `CC(C)=CCOc1ccc(C(=O)O)cc1` [Compound 9, 4-(3-Methyl-but-2-enyloxy)-benzoic acid], with −27.8%.
As for `CC(C)COc1cccc(C(=O)O)c1` [Compound 31, 3-Isobutoxy-benzoic acid], the “Glucose (Absolute change from Control)” value in experiment [1] (Table 3) was −9.5%.
As for `C=C(C)COc1cccc(C(=O)O)c1` [Compound 21, 3-(2-Methyl-allyloxy)-benzoic acid], in experiment [1] (Table 1, aqueous solution), the “Glucose (Absolute change from Control)” value is listed as −27.4%.
On to `CCCOc1cccc(C(=O)O)c1` [Compound 24, 3-Propoxy-benzoic acid], for which the “Glucose (Absolute change from Control)” value in experiment [1] (Table 3) is on record as −15.2%.
With `C=CCOc1cc(OCCO)ccc1C(=O)O` [Compound 16, 2-Allyloxy-4-(2-hydroxy-ethoxy)-benzoic acid], the “Glucose (Absolute change from Control)” value in experiment [1] (Table 1, aqueous solution) is listed as −4.6%.
Turning to `C=CCCOc1ccc(C(=O)O)cc1` [Compound 4, 4-But-3-enyloxy-benzoic acid], the “Glucose (Absolute change from Control)” value is −41.6% in experiment [1] (Table 1, aqueous solution); 8.8% in experiment [2] (setting [3]); −11.4% in experiment [2] (setting [4]).
On to `CCCOCc1cccc(C(=O)O)c1` [Compound 44, 3-Propoxymethyl-benzoic acid], for which, in experiment [1] (Table 5), the “Glucose (Absolute change from Control)” value is reported as −20.8%.
Take `C=CCOc1ccc(OC)cc1C(=O)O` [Compound 10, 2-Allyloxy-5-methoxy-benzoic acid]: the “Glucose (Absolute change from Control)” value in experiment [1] (Table 1, aqueous solution) is listed as −27.2%.
As for `CC(C)COc1ccc(C(=O)O)cc1` [Compound 30, 4-Isobutoxy-benzoic acid], the “Glucose (Absolute change from Control)” value in experiment [1] (Table 3) is on record as −29.8%.
For the compound `C=C(C)COc1ccccc1C(=O)O` [Compound 15, 2-(2-Methyl-allyloxy)-benzoic acid], the “Glucose (Absolute change from Control)” value in experiment [1] (Table 1, aqueous solution) is listed as −37.4%.
Regarding `C=C(C)COc1ccc(C(=O)O)cc1` [Compound 20, 4-(2-Methyl-allyloxy)-benzoic acid], the “Glucose (Absolute change from Control)” value in experiment [1] (Table 1, aqueous solution) is −51.1%.
Still for that read-out and setting: then `C=CCCOc1ccccc1C(=O)O` [Compound 3, 2-But-3-enyloxy-benzoic acid], with −25.5%.
For the compound `CCCCOc1ccccc1C(=O)O` [Compound 29, 2-Butoxy-benzoic acid], the “Glucose (Absolute change from Control)” value in experiment [1] (Table 3) is reported as −34.9%.
In the case of `C=CCOc1ccc(Br)cc1C(=O)O` [Compound 18, 2-Allyloxy-5-bromo-benzoic acid], the “Glucose (Absolute change from Control)” value in experiment [1] (Table 1, aqueous solution) is listed as −5.0%.
On the same count and under the same terms, then `C=CCOc1ccc(C(=O)O)cc1` [Compound 2, 4-Allyloxy-benzoic acid], with −42.4%.
In the case of `CCCOc1ccc(C(=O)O)cc1` [Compound 25, 4-Propoxy-benzoic acid], the “Glucose (Absolute change from Control)” value in experiment [1] (Table 3) is −25.5%.
